Earlier results, collected in patent US6977083B1, “Bioadhesive tablet containing testosterone/testosterone ester mixtures and method for producing a predetermined testosterone time-release profile with same” (Jenapharm GmbH & Co. KG, priority 1998, dated 2005).

Details: after oral or parenteral administration

For `C[C@]12CC[C@H]3[C@@H](CCC4=CC(=O)CC[C@@]43C)[C@@H]1CC[C@@H]2O` [testosterone], the plasma half-life is given as “about 10 minutes”.
